From patent US20070149404A1, “Microbicidal compositions” (BASF AKTIENGESELLSCHAFT, priority 2003, published 2007)
Structures can show the parent of a compound that is named as a salt.

How the values were obtained:
algae = assay: Efficacy against algal growth on painted plaster surface (BBA MOAT 33); assay type: cell-based; conditions: 0.5% in paint; for MEAN ALGAL GROWTH RATING 28 days / MEAN ALGAL GROWTH RATING 56 days / % Improved after 56 days (algal growth): painted plaster; for MEAN ALGAL GROWTH RATING 28 days / MEAN ALGAL GROWTH RATING 56 days: leached 72 hours, mean of ratings 0-5; for MEAN ALGAL GROWTH RATING 28 days: 28 days after inoculation; for MEAN ALGAL GROWTH RATING 56 days: 56 days after inoculation; for % Improved after 56 days (algal growth): versus unpreserved paint
Procedure: (§1) Testing was performed according to the BS3900 G6 and BBA MOAT 33 methods for evaluation versus fungi and algae, respectively. The methods involve painting a substrate panel with the coating and leaching under running water for 72 hours. The substrates are incubated for 56 days after being inoculated with fungi or algae. Performance is judged by comparing with suitable control samples ie without biocide, a positive control and for fungi with substrate panels that have not been leached.
(§2) Performance rating on painted test substrates (Score of 0, 1 and 2 is considered as a pass) • 0=no growth • 1=trace of growth • 2=growth on 1-10% of test face • 3=growth on 10-30% of test face • 4=growth on 30-70% of test face
(§3) 5=growth on 70-100% of test face.

fungi [1] = assay: Efficacy against fungal growth on painted wooden surface (BS3900 G6); assay type: cell-based; conditions: 0.5% in paint
Procedure: as §1, §2, §3

Aspergillus niger = assay: Intrinsic activity, microtitre plate method, AN; assay type: cell-based; set-up: key: rating 0 = no activity to 5 = biostatic, may be biocide
Procedure: (§4) The chemistries were tested for their activity against a range of organisms via a microtitre plate method. The test organisms were: • ML—Micrococcus luteus • SA—Staphylococcus aureus • EC—Escherichia coli • PA—Pseudomonas aeruginosa • CF—Citrobacter freundii • PM—Proteus mirabilis • CA—Candida albicans • SC—Saccharomyces cerevisiae • AN—Aspergillus niger • PF—Penicillium funiculosum • AA—Alternaria alternata
(§5) Using the following rating scale: • 0=no activity • 1=minimal inhibition • 2=inhibition • 3=clear inhibition • 4=clear inhibition biostatic, may be biocide activity • 5=biostatic, may be biocide activity
(§6) Readings of 4 and possibly 3 were considered to be valid for biocidal applications.

Alternaria alternata = assay: Intrinsic activity, microtitre plate method, AA; assay type: cell-based; set-up: key: rating 0 = no activity to 5 = biostatic, may be biocide
Procedure: as §4, §5, §6

Proteus mirabilis = assay: Intrinsic activity, microtitre plate method, PM; assay type: cell-based; set-up: key: rating 0 = no activity to 5 = biostatic, may be biocide
Procedure: as §4, §5, §6

Penicillium funiculosum = assay: Intrinsic activity, microtitre plate method, PF; assay type: cell-based; set-up: key: rating 0 = no activity to 5 = biostatic, may be biocide
Procedure: as §4, §5, §6

Staphylococcus aureus = assay: Intrinsic activity, microtitre plate method, SA; assay type: cell-based; set-up: key: 0 = no activity to 5 = biostatic, may be biocide activity
Procedure: as §4, §5, §6

Fungi [2] = assay: Intrinsic activity, microtitre plate method, mean score over fungi; assay type: cell-based, CA, SC, AN, PF, AA; conditions: performance against organisms/no of organisms, 0 to <3 poor, >3 inhibition, >4 biostasis, biocidal activity
Procedure: as §4, §5, §6

Escherichia coli = assay: Intrinsic activity, microtitre plate method, EC; assay type: cell-based; set-up: key: rating 0 = no activity to 5 = biostatic, may be biocide
Procedure: as §4, §5, §6

Candida albicans = assay: Intrinsic activity, microtitre plate method, CA; assay type: cell-based; set-up: key: rating 0 = no activity to 5 = biostatic, may be biocide
Procedure: as §4, §5, §6

Pseudomonas aeruginosa = assay: Intrinsic activity, microtitre plate method, PA; assay type: cell-based; set-up: key: rating 0 = no activity to 5 = biostatic, may be biocide
Procedure: as §4, §5, §6

test bacteria and fungi = assay: Intrinsic activity against bacteria and fungi, microtitre plate method, summary in words; assay type: cell-based; conditions: for Activity against the test bacteria and fungi: 1000 and 500 ppm a.i.; for Spectrum of activity: at both concentrations (1000 and 500 ppm a.i.)
Procedure: as §4, §5, §6

Saccharomyces cerevisiae = assay: Intrinsic activity, microtitre plate method, SC; assay type: cell-based; set-up: key: rating 0 = no activity to 5 = biostatic, may be biocide
Procedure: as §4, §5, §6

Micrococcus luteus = assay: Intrinsic activity, microtitre plate method, ML; assay type: cell-based; set-up: key: rating 0 = no activity to 5 = biostatic, may be biocide
Procedure: as §4, §5, §6

Citrobacter freundii = assay: Intrinsic activity, microtitre plate method, CF; assay type: cell-based; set-up: key: rating 0 = no activity to 5 = biostatic, may be biocide
Procedure: as §4, §5, §6

Bacteria = assay: Intrinsic activity, microtitre plate method, mean score over bacteria; assay type: cell-based, ML, SA, EC, PA, CF, PM; conditions: performance against organisms/no of organisms, 0 to <3 poor, >3 inhibition, >4 biostasis, biocidal activity
Procedure: as §4, §5, §6

fungi [3] = assay: Efficacy against fungal growth on painted plaster surface (BS3900 G6); assay type: cell-based; conditions: 0.5% in paint
Procedure: as §1, with “The substrates are incubated for 56 days after being inoculated with fungi or algae.” left out
as §2, §3

[4] = constant running water for 72 hours, 28 days, mean of ratings 0-5
[5] = constant running water for 72 hours, 56 days, mean of ratings 0-5
[6] = leached 72 hours, versus unpreserved paint
[7] = no leaching with water, 28 days, mean of ratings 0-5
[8] = no leaching with water, 56 days, mean of ratings 0-5

CCOCn1c(-c2ccc(Cl)cc2)c(C#N)c(Br)c1C(F)(F)F [Chlorfenapyr, 4-Brom-2-(p-chlorphenyl)-1-(ethoxymethyl)-5-(tri-fluormethyl)-pyrrole-3-carbonitril]
3.5: MEAN ALGAL GROWTH RATING 56 days (algae) | MEAN FUNGAL GROWTH RATING - WOOD SUBSTRATE 56 days leached (fungi [1]; [5])
exhibited an improvement: Improvement against algal growth on the plaster surface (algae) | Improvement against fungal growth on the wood surface (fungi [1])
3 (3=growth on 10-30% of test face): MEAN ALGAL GROWTH RATING 28 days (algae) | MEAN FUNGAL GROWTH RATING - WOOD SUBSTRATE 28 days leached (fungi [1]; [4])
12.5%: % Improved after 56 days (algal growth) (algae) | % Improved After 56 days leached (fungal, wood) (fungi [1]; [6])
5 (5=growth on 70-100% of test face): MEAN FUNGAL GROWTH RATING - WOOD SUBSTRATE 28 days as applied (fungi [1]; [7]) | MEAN FUNGAL GROWTH RATING - WOOD SUBSTRATE 56 days as applied (fungi [1]; [8])

CC(Oc1ccc(Cl)cc1Cl)C(=O)O (stereo not shown) [Dichlorprop, 2,4-Dichlorophenoxy-propionic acid]
5.0: Fungi Mean Score (Fungi [2]; 1000 ppm a.i.) | Bacteria Mean Score (Bacteria; 1000 ppm a.i.)
1: SC rating (Saccharomyces cerevisiae; 500 ppm a.i.)
5: AN rating (Aspergillus niger; 500 ppm a.i.) | AN rating (Aspergillus niger; 1000 ppm a.i.) | AA rating (Alternaria alternata; 500 ppm a.i.) | AA rating (Alternaria alternata; 1000 ppm a.i.) | PM rating (Proteus mirabilis; 1000 ppm a.i.) | PF rating (Penicillium funiculosum; 500 ppm a.i.) | PF rating (Penicillium funiculosum; 1000 ppm a.i.) | SA rating (Staphylococcus aureus; 1000 ppm a.i.) | EC rating (Escherichia coli; 1000 ppm a.i.) | CA rating (Candida albicans; 1000 ppm a.i.) | PA rating (Pseudomonas aeruginosa; 1000 ppm a.i.) | SC rating (Saccharomyces cerevisiae; 1000 ppm a.i.) | ML rating (Micrococcus luteus; 500 ppm a.i.) | ML rating (Micrococcus luteus; 1000 ppm a.i.) | CF rating (Citrobacter freundii; 1000 ppm a.i.)
good activity: Activity against the test bacteria and fungi (test bacteria and fungi)
3: PM rating (Proteus mirabilis; 500 ppm a.i.) | SA rating (Staphylococcus aureus; 500 ppm a.i.) | EC rating (Escherichia coli; 500 ppm a.i.) | PA rating (Pseudomonas aeruginosa; 500 ppm a.i.) | CF rating (Citrobacter freundii; 500 ppm a.i.)
3.6: Fungi Mean Score (Fungi [2]; 500 ppm a.i.)
2: CA rating (Candida albicans; 500 ppm a.i.)
3.3: Bacteria Mean Score (Bacteria; 500 ppm a.i.)

CCCCCCCCCCCCNC(=N)N [Dodine, 1-dodecylguanidinium hydrochloride or—acetate]
4.3: Bacteria Mean Score (Bacteria; 500 ppm a.i.)
4.7: Bacteria Mean Score (Bacteria; 1000 ppm a.i.)
5.0: Fungi Mean Score (Fungi [2]; 500 ppm a.i.) | Fungi Mean Score (Fungi [2]; 1000 ppm a.i.)
good activity: Activity against the test bacteria and fungi (test bacteria and fungi)
5: AN rating (Aspergillus niger; 500 ppm a.i.) | AN rating (Aspergillus niger; 1000 ppm a.i.) | AA rating (Alternaria alternata; 500 ppm a.i.) | AA rating (Alternaria alternata; 1000 ppm a.i.) | PM rating (Proteus mirabilis; 500 ppm a.i.) | PM rating (Proteus mirabilis; 1000 ppm a.i.) | PF rating (Penicillium funiculosum; 500 ppm a.i.) | PF rating (Penicillium funiculosum; 1000 ppm a.i.) | SA rating (Staphylococcus aureus; 500 ppm a.i.) | SA rating (Staphylococcus aureus; 1000 ppm a.i.) | EC rating (Escherichia coli; 500 ppm a.i.) | EC rating (Escherichia coli; 1000 ppm a.i.) | CA rating (Candida albicans; 500 ppm a.i.) | CA rating (Candida albicans; 1000 ppm a.i.) | SC rating (Saccharomyces cerevisiae; 500 ppm a.i.) | SC rating (Saccharomyces cerevisiae; 1000 ppm a.i.) | ML rating (Micrococcus luteus; 500 ppm a.i.) | ML rating (Micrococcus luteus; 1000 ppm a.i.) | CF rating (Citrobacter freundii; 500 ppm a.i.) | CF rating (Citrobacter freundii; 1000 ppm a.i.)
1: PA rating (Pseudomonas aeruginosa; 500 ppm a.i.)
3: PA rating (Pseudomonas aeruginosa; 1000 ppm a.i.)

Fc1ccc([C@@]2(Cn3cncn3)O[C@H]2c2ccccc2Cl)cc1 [Epoxiconazole, cis-3-(2-Chlorphenyl)-2-(4-fluorphenyl)-2-(triazol-1-ylmethyl)-oxiran]
30%: % Improved After 56 days as applied (fungal, plaster) (fungi [3]; no leaching, versus unpreserved paint)
exhibited an improvement: Improvement against algal growth on the plaster surface (algae) | Improvement against fungal growth on the plaster surface (fungi [3]; as applied or after leaching)
29%: % Improved After 56 days leached (fungal, plaster) (fungi [3]; [6])
3: PF rating (Penicillium funiculosum; 500 ppm a.i.) | PF rating (Penicillium funiculosum; 1000 ppm a.i.)
1.5: MEAN FUNGAL GROWTH RATING - PLASTER SUBSTRATE 28 days leached (fungi [3]; [4])
37.5%: % Improved after 56 days (algal growth) (algae)
4.6: Fungi Mean Score (Fungi [2]; 500 ppm a.i.) | Fungi Mean Score (Fungi [2]; 1000 ppm a.i.)
2.5: MEAN ALGAL GROWTH RATING 28 days (algae) | MEAN ALGAL GROWTH RATING 56 days (algae) | MEAN FUNGAL GROWTH RATING - PLASTER SUBSTRATE 56 days leached (fungi [3]; [5])
3.5: MEAN FUNGAL GROWTH RATING - PLASTER SUBSTRATE 28 days as applied (fungi [3]; [7]) | MEAN FUNGAL GROWTH RATING - PLASTER SUBSTRATE 56 days as applied (fungi [3]; [8])
0.0: Bacteria Mean Score (Bacteria; 500 ppm a.i.) | Bacteria Mean Score (Bacteria; 1000 ppm a.i.)
only showed marginal improvement: Improvement against fungal growth on the wood surface (fungi [1])
5: AN rating (Aspergillus niger; 500 ppm a.i.) | AN rating (Aspergillus niger; 1000 ppm a.i.) | AA rating (Alternaria alternata; 500 ppm a.i.) | AA rating (Alternaria alternata; 1000 ppm a.i.) | CA rating (Candida albicans; 500 ppm a.i.) | CA rating (Candida albicans; 1000 ppm a.i.) | SC rating (Saccharomyces cerevisiae; 500 ppm a.i.) | SC rating (Saccharomyces cerevisiae; 1000 ppm a.i.)
0: PM rating (Proteus mirabilis; 500 ppm a.i.) | PM rating (Proteus mirabilis; 1000 ppm a.i.) | SA rating (Staphylococcus aureus; 500 ppm a.i.) | SA rating (Staphylococcus aureus; 1000 ppm a.i.) | EC rating (Escherichia coli; 500 ppm a.i.) | EC rating (Escherichia coli; 1000 ppm a.i.) | PA rating (Pseudomonas aeruginosa; 500 ppm a.i.) | PA rating (Pseudomonas aeruginosa; 1000 ppm a.i.) | ML rating (Micrococcus luteus; 500 ppm a.i.) | ML rating (Micrococcus luteus; 1000 ppm a.i.) | CF rating (Citrobacter freundii; 500 ppm a.i.) | CF rating (Citrobacter freundii; 1000 ppm a.i.)
only display antifungal activity: Spectrum of activity (test bacteria and fungi)

(1RS, 5RS;1RS, 5SR)-5- (4-chlorobenzyl)-2,2-di- methyl-1-(1H-1,2,4-tri- azol-1-ylmethyl)cyclo- pentanol [Metconazole]
4.2: Fungi Mean Score (Fungi [2]; 500 ppm a.i.) | Fungi Mean Score (Fungi [2]; 1000 ppm a.i.)
0.7: Bacteria Mean Score (Bacteria; 1000 ppm a.i.)
5: AN rating (Aspergillus niger; 500 ppm a.i.) | AN rating (Aspergillus niger; 1000 ppm a.i.) | AA rating (Alternaria alternata; 500 ppm a.i.) | AA rating (Alternaria alternata; 1000 ppm a.i.) | PF rating (Penicillium funiculosum; 500 ppm a.i.) | PF rating (Penicillium funiculosum; 1000 ppm a.i.)
3: CA rating (Candida albicans; 500 ppm a.i.) | CA rating (Candida albicans; 1000 ppm a.i.) | SC rating (Saccharomyces cerevisiae; 500 ppm a.i.) | SC rating (Saccharomyces cerevisiae; 1000 ppm a.i.) | ML rating (Micrococcus luteus; 1000 ppm a.i.)
0: PM rating (Proteus mirabilis; 500 ppm a.i.) | PM rating (Proteus mirabilis; 1000 ppm a.i.) | EC rating (Escherichia coli; 500 ppm a.i.) | EC rating (Escherichia coli; 1000 ppm a.i.) | PA rating (Pseudomonas aeruginosa; 500 ppm a.i.) | PA rating (Pseudomonas aeruginosa; 1000 ppm a.i.) | CF rating (Citrobacter freundii; 500 ppm a.i.) | CF rating (Citrobacter freundii; 1000 ppm a.i.)
0.5: Bacteria Mean Score (Bacteria; 500 ppm a.i.)
only display antifungal activity: Spectrum of activity (test bacteria and fungi)
1: SA rating (Staphylococcus aureus; 500 ppm a.i.) | SA rating (Staphylococcus aureus; 1000 ppm a.i.)
2: ML rating (Micrococcus luteus; 500 ppm a.i.)
